Data reported in PMC8956723, “Secretory quality control constrains functional selection-associated protein structure innovation” (Communications Biology, 2022).

Experiments:
Experiment in all cases: ELISA, CRP binding to immobilised PC-KLH
Details in all cases: PC presented as immobilised KLH conjugate, not free ligand; 2 mM CaCl2, TBS pH 7.4; calcium-dependent
human CRP = target: T1, human CRP (Homo sapiens, UniProt P02741)
T1 sequence (P02741 19-224): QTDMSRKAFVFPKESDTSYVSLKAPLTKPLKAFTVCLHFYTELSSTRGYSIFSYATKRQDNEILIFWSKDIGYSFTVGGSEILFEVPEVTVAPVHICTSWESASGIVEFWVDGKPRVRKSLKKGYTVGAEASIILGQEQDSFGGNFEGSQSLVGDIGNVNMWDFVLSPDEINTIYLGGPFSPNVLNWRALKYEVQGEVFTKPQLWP

mouse CRP = target: T2, mouse CRP (Mus musculus, UniProt P14847)
T2 construct: signal peptide replaced by alpha-factor signal, N-terminal 6xHis tag kept; secreted from Pichia pastoris GS115; homopentamer
T2 sequence (P14847 20-225): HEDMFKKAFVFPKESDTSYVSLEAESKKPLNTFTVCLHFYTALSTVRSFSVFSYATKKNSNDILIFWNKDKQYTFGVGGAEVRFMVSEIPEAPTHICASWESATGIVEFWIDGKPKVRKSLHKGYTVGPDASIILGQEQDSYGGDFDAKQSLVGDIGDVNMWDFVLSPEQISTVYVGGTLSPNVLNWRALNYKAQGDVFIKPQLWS

rat CRP = target: T3, rat CRP (Rattus norvegicus, UniProt P48199)
T3 construct: signal peptide replaced by alpha-factor signal, N-terminal 6xHis tag kept; secreted from Pichia pastoris GS115; homopentamer
T3 sequence (P48199 20-230): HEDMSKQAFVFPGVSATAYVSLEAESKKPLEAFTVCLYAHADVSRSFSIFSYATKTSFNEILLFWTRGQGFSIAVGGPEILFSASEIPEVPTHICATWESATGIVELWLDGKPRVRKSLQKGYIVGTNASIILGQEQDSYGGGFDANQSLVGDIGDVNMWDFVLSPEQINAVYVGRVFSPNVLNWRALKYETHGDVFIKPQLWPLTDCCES

In the case of `C[N+](C)(C)CCOP(=O)([O-])O` [phosphorylcholine], the “ELISA, CRP binding to immobilised PC-KLH” value (human CRP) is reported as “mouse, rat, and human CRP also showed a comparable capacity to bind PC”, the “ELISA, CRP binding to immobilised PC-KLH” value (mouse CRP) is reported as “mouse, rat, and human CRP also showed a comparable capacity to bind PC” and the “ELISA, CRP binding to immobilised PC-KLH” value (rat CRP) is reported as “mouse, rat, and human CRP also showed a comparable capacity to bind PC”.
